Test results taken from US10815274B2, “Immunogenic WT-1 peptides and methods of use thereof” (Memorial Sloan Kettering Cancer Center, priority 2012, dated 2020).
Where a SMILES comes first, the peptide text is derived from it.

Key:
[1] = system: WT1 peptide loaded autologous APC; test: Cr51 release assay, cytotoxic CTL response vs peptide loaded autologous APC; assay type: cell-based, human; conditions: 50:1 E:T
[2] = system: PHA blasts; test: Cr51 release assay, cytotoxic CTL response vs PHA blasts from the same leukemic patient; assay type: cell-based, human; conditions: 50:1 E:T, PHA blasts from same patients as the leukemia
[3] = system: WT1- autologous APC; test: Cr51 release assay, cytotoxic CTL response vs unmodified autologous APC; assay type: cell-based, human; conditions: 50:1 E:T
[4] = system: WT1- allo APC with restricting HLA allele; test: Cr51 release assay, cytotoxic CTL response vs unloaded allogeneic APC sharing restricting HLA allele; assay type: cell-based, human; conditions: 50:1 E:T
[5] = system: WT1+ leukemia; test: Cr51 release assay, cytotoxic CTL response vs WT1+ leukemia expressing restricting HLA allele; assay type: cell-based, human; conditions: 50:1 E:T
[6] = system: WT1+ allo APC with restricting HLA allele loaded with WT1 peptide; test: Cr51 release assay, cytotoxic CTL response vs peptide loaded allogeneic APC sharing restricting HLA allele (HLA restriction); conditions: 50:1 E:T
[7] = system: WT1- leukemia; test: Cr51 release assay, cytotoxic CTL response vs WT1- leukemia; assay type: cell-based, human; conditions: 50:1 E:T

Row | SMILES | Cytotoxic CTL response, % vs WT1 peptide loaded autologous APC ([1]; HLA allele A0201) [%] | Cytotoxic CTL response, % vs PHA blasts ([2]; HLA allele A0201) [%] | Cytotoxic CTL response, % vs WT1- autologous APC ([3]; HLA allele A0201) [%] | Cytotoxic CTL response, % vs WT1- allo APC with restricting HLA allele ([4]; HLA allele A0201) [%] | Cytotoxic CTL response, % vs WT1+ Leukemia ([5]; HLA allele A0201) [%] | Cytotoxic CTL response, % vs WT1+ leukemia ([5]; HLA allele A0201) [%] | Cytotoxic CTL response, % vs WT1+ allo APC with restricting HLA allele loaded with WT1 peptide ([6]; HLA allele A0201) [%] | Cytotoxic CTL response, % vs WT1- leukemia ([7]; HLA allele A0201) [%] | also measured
1 | CC(C)C[C@H](NC(=O)[C@H](C)NC(=O)CN)C(=O)N[C@@H](CCCNC(=N)N)C(=O)N[C@@H](CC(N)=O)C(=O)N1CCC[C@H]1C(=O)N[C@H](C(=O)N[C@@H](C)C(=O)N[C@@H](CS)C(=O)O)[C@@H](C)O [SEQ ID NO: 143] (H-GALRNPTAC-OH; N-terminus and C-terminus assumed) | – | – | – | – | – | – | – | – | Cytotoxic CTL response, % vs WT1 peptide loaded autologous APC ([1]; HLA allele B0702): 30%; Cytotoxic CTL response, % vs PHA blasts ([2]; HLA allele B0702): 1%; Cytotoxic CTL response, % vs WT1- autologous APC ([3]; HLA allele B0702): 0%; Cytotoxic CTL response, % vs WT1- allo APC with restricting HLA allele ([4]; HLA allele B0702): 5%; Cytotoxic CTL response, % vs WT1+ Leukemia ([5]; HLA allele B0702): 60%; Cytotoxic CTL response, % vs WT1+ leukemia ([5]; HLA allele B0702): 60%; Cytotoxic CTL response, % vs WT1+ allo APC with restricting HLA allele loaded with WT1 peptide ([6]; HLA allele B0702): 22%; Cytotoxic CTL response, % vs WT1- leukemia ([7]; HLA allele B0702): 1%
2 | CC(C)C[C@H](NC(=O)[C@H](CO)NC(=O)[C@@H]1CCCN1C(=O)[C@@H]1CCCN1C(=O)[C@H](Cc1ccccc1)NC(=O)[C@H](Cc1c[nH]cn1)NC(=O)[C@@H]1CCCN1C(=O)[C@H](CC(C)C)NC(=O)[C@@H]1CCCN1)C(=O)O [SEQ ID NO: 144] (H-PLPHFPPSL-OH; N-terminus and C-terminus assumed) | 30 | 1 | 0 | 1 | 22 | 22 | 24 | 2 | –
3 | C[C@@H](O)[C@H](N)C(=O)N[C@@H](Cc1c[nH]cn1)C(=O)N[C@@H](CO)C(=O)N1CCC[C@H]1C(=O)N[C@H](C(=O)N[C@@H](Cc1c[nH]cn1)C(=O)N1CCC[C@H]1C(=O)N1CCC[C@H]1C(=O)N[C@@H](CCCNC(=N)N)C(=O)O)[C@@H](C)O [SEQ ID NO: 146] (H-THSPTHPPR-OH; N-terminus and C-terminus assumed) | 50 | 3 | 2 | 1 | 38 | 38 | 21 | 0 | Cytotoxic CTL response, % vs WT1 peptide loaded autologous APC ([1]; HLA allele B4001): 45%; Cytotoxic CTL response, % vs PHA blasts ([2]; HLA allele B4001): 5%; Cytotoxic CTL response, % vs WT1- autologous APC ([3]; HLA allele B4001): 0%; Cytotoxic CTL response, % vs WT1- allo APC with restricting HLA allele ([4]; HLA allele B4001): 0%; Cytotoxic CTL response, % vs WT1+ Leukemia ([5]; HLA allele B4001): 65%; Cytotoxic CTL response, % vs WT1+ leukemia ([5]; HLA allele B4001): 65%; Cytotoxic CTL response, % vs WT1+ allo APC with restricting HLA allele loaded with WT1 peptide ([6]; HLA allele B4001): 31%; Cytotoxic CTL response, % vs WT1- leukemia ([7]; HLA allele B4001): 3%
4 | CC(C)C[C@H](NC(=O)[C@@H](N)CCCCN)C(=O)NCC(=O)N[C@@H](C)C(=O)N[C@@H](C)C(=O)N[C@@H](CCC(=O)O)C(=O)N[C@@H](C)C(=O)N[C@@H](CO)C(=O)N[C@@H](C)C(=O)O [SEQ ID NO: 150] (H-KLGAAEASA-OH; N-terminus and C-terminus assumed) | 41 | 8 | 3 | 2 | 37 | 37 | 22 | 10 | –
